Consider 31 compounds from US8614206B2 (Genentech, Inc., priority 2011, dated 2013).

Sequence of PIM1 (P11309 whole entry): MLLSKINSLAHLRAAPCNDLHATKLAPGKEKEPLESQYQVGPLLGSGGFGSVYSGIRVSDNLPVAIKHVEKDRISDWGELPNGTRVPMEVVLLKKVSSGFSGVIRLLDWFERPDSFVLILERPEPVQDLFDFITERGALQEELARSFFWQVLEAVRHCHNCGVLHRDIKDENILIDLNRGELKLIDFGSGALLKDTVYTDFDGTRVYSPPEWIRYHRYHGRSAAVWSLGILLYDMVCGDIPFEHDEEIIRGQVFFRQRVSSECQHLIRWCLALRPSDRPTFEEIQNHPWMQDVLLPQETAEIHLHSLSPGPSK

This experiment concerns the target PIM1 (Homo sapiens (Human), UniProt P11309). The experiment in a line: Pim kinase inhibition, PIM1 LC3K (Example 901). The format is biochemical.
Description: Determination of the Pim kinase activity of a Formula I compound is possible by a number of direct and indirect detection methods.
The Ki is a dissociation constant, usually derived from enzyme kinetics or from competition with a known ligand. The low end stands for higher affinity, the high end for lower affinity. In turn, `Cn1ncc(NC(=O)c2nc(-c3ccccc3F)ccc2N)c1N1CCC(N)CC(F)(F)C1` (racemic) [Example 292, 3-amino-N-(5-(5-amino-3,3-difluoroazepan-1-yl)-1-methyl-1H-pyrazol-4-yl)-6-(2-fluorophenyl)picolinamide] yielded an inhibitory constant (Ki) of 0.021 nM.
As for `Cn1ncc(NC(=O)c2nc(-c3ccccc3F)cnc2N)c1N1CCC(N)CC(F)(F)C1` (racemic) [Example 293, 3-amino-N-(5-(5-amino-3,3-difluoroazepan-1-yl)-1-methyl-1H-pyrazol-4-yl)-6-(2-fluorophenyl)pyrazine-2-carboxamide], the figure is 0.023 nM; as for `Cn1ncc(NC(=O)c2nc(-c3ccccc3F)sc2N)c1N1CCNCC2(CCO2)C1` (racemic) [Example 477, 5-amino-2-(2-fluorophenyl)-N-[1-methyl-5-(1-oxa-6,9-diazaspiro[3.6]decan-6-yl)pyrazol-4-yl]thiazole-4-carboxamide], 0.188 nM; as for `Cn1ncc(NC(=O)c2nc(-c3ccccc3F)cnc2N)c1N1CCC(N)C(F)CC1` (single isomer, unassigned) [Example 243, 3-amino-N-(5-(4-amino-5-fluoroazepan-1-yl)-1-methyl-1H-pyrazol-4-yl)-6-(2-fluorophenyl)pyrazine-2-carboxamide], 0.123 nM.
With `Cn1ncc(NC(=O)c2nc(-c3ccccc3F)cnc2N)c1N1CCC(N)C(F)CC1` (single isomer, unassigned) [Example 244, 3-amino-N-(5-(4-amino-5-fluoroazepan-1-yl)-1-methyl-1H-pyrazol-4-yl)-6-(2-fluorophenyl)pyrazine-2-carboxamide] the figure was 0.141 nM.
With `Cn1ncc(NC(=O)c2nc(-c3ccccc3F)ccc2N)c1N1CCC(N)C(F)CC1` (single isomer, unassigned) [Example 245, 3-amino-N-(5-(4-amino-5-fluoroazepan-1-yl)-1-methyl-1H-pyrazol-4-yl)-6-(2-fluorophenyl)picolinamide] the figure was 0.173 nM; with `Cn1ncc(NC(=O)c2nc(-c3ccccc3F)ccc2N)c1N1CCC(N)C(F)CC1` (single isomer, unassigned) [Example 246, 3-amino-N-(5-(4-amino-5-fluoroazepan-1-yl)-1-methyl-1H-pyrazol-4-yl)-6-(2-fluorophenyl)picolinamide], 0.149 nM.
Compound `Cn1ncc(NC(=O)c2nc(-c3ccccc3F)cnc2N)c1N1CC[C@@H](N)CC(F)(F)C1` (single isomer, unassigned) [Example 248] gave a Ki of 0.007 nM.
As to `Nc1sc(-c2c(F)cccc2F)nc1C(=O)Nc1cnn(CC(F)F)c1N1CC[C@H](N)CC(F)(F)C1` (single isomer, unassigned) [Example 280], the Ki amounted to 0.01 nM.
As for `Nc1sc(-c2c(F)cccc2F)nc1C(=O)Nc1cnn(C2CC2)c1N1CCC(N)C(F)CC1` (single isomer, unassigned) [Example 332, 5-amino-N-[5-(4-amino-5-fluoro-azepan-1-yl)-1-cyclopropyl-pyrazol-4-yl]-2-(2,6-difluorophenyl)thiazole-4-carboxamide], the figure is 0.148 nM.
In turn, `CCn1ncc(NC(=O)c2nc(-c3c(F)cccc3F)sc2N)c1N1CCC(N)C(F)CC1` (single isomer, unassigned) [Example 369, 5-amino-N-[5-(4-amino-5-fluoro-azepan-1-yl)-1-ethyl-pyrazol-4-yl]-2-(2,6-difluorophenyl)thiazole-4-carboxamide] returned an inhibition constant (Ki) of 0.178 nM.
In turn, `CCn1ncc(NC(=O)c2nc(-c3ccccc3F)sc2N)c1N1CCC(N)C(F)CC1` (single isomer, unassigned) [Example 373, 5-amino-N-[5-(4-amino-5-fluoro-azepan-1-yl)-1-ethyl-pyrazol-4-yl]-2-(2-fluorophenyl)thiazole-4-carboxamide] returned a Ki of 0.373 nM.
As for `CCn1ncc(NC(=O)c2nc(-c3ccccc3F)sc2N)c1N1CCC(N)C(F)CC1` (single isomer, unassigned) [Example 374, 5-amino-N-[5-(4-amino-5-fluoro-azepan-1-yl)-1-ethyl-pyrazol-4-yl]-2-(2-fluorophenyl)thiazole-4-carboxamide], the figure is 0.346 nM; as for `CCn1ncc(NC(=O)c2nc(-c3c(F)cccc3F)sc2N)c1N1CCC(N)C(OC)CC1` (single isomer, unassigned) [Example 389, 5-amino-N-[5-(4-amino-5-methoxy-azepan-1-yl)-1-ethyl-pyrazol-4-yl]-2-(2,6-difluorophenyl)thiazole-4-carboxamide], 0.624 nM; as for `COC1CCN(c2c(NC(=O)c3nc(-c4c(F)cccc4F)sc3N)cnn2C2CC2)CCC1N` (single isomer, unassigned) [Example 401, 5-amino-N-[5-(4-amino-5-methoxy-azepan-1-yl)-1-cyclopropyl-pyrazol-4-yl]-2-(2,6-difluorophenyl)thiazole-4-carboxamide], 0.059 nM.
With `COC1CCN(c2c(NC(=O)c3nc(-c4c(F)cccc4F)sc3N)cnn2C2CC2)CCC1N` (single isomer, unassigned) [Example 402, 5-amino-N-[5-(4-amino-5-methoxy-azepan-1-yl)-1-cyclopropyl-pyrazol-4-yl]-2-(2,6-difluorophenyl)thiazole-4-carboxamide] the figure was 0.126 nM.
As for `COC1CCN(c2c(NC(=O)c3nc(-c4c(F)cccc4F)sc3N)cnn2C2CC2)CCC1N` (single isomer, unassigned) [Example 403, 5-amino-N-[5-(4-amino-5-methoxy-azepan-1-yl)-1-cyclopropyl-pyrazol-4-yl]-2-(2,6-difluorophenyl)thiazole-4-carboxamide], the figure is 0.21 nM.
In the case of `COC1CCN(c2c(NC(=O)c3nc(-c4c(F)cccc4F)sc3N)cnn2C2CC2)CCC1N` (single isomer, unassigned) [Example 404, 5-amino-N-[5-(4-amino-5-methoxy-azepan-1-yl)-1-cyclopropyl-pyrazol-4-yl]-2-(2,6-difluorophenyl)thiazole-4-carboxamide], the inhibitory constant (Ki) was found to be 0.036 nM.
As for `Cn1ncc(NC(=O)c2nc(-c3ccccc3F)sc2N)c1N1CCNC[C@]2(CCO2)C1` (single isomer, unassigned) [Example 481], the figure is 0.496 nM.
In the case of `Cn1ncc(NC(=O)c2nc(-c3c(F)cccc3F)sc2N)c1N1CCC(N)C2(CCO2)CC1` (single isomer, unassigned) [Example 497, 5-amino-N-[5-(5-amino-1-oxa-8-azaspiro[3.6]decan-8-yl)-1-methyl-pyrazol-4-yl]-2-(2,6-difluorophenyl)thiazole-4-carboxamide], the affinity, expressed as Ki, was 0.268 nM.
As for `Cn1ncc(NC(=O)c2nc(-c3c(F)cccc3F)sc2N)c1N1CCC(N)C2(CCO2)CC1` (single isomer, unassigned) [Example 498, 5-amino-N-[5-(5-amino-1-oxa-8-azaspiro[3.6]decan-8-yl)-1-methyl-pyrazol-4-yl]-2-(2,6-difluorophenyl)thiazole-4-carboxamide], the figure is 0.038 nM; as for `Cn1ncc(NC(=O)c2nc(-c3c(F)cccc3F)sc2N)c1N1CCC(N)C2(CCO2)CC1` (single isomer, unassigned) [Example 501, 5-amino-N-[5-(5-amino-1-oxa-8-azaspiro[3.6]decan-8-yl)-1-methyl-pyrazol-4-yl]-2-(2,6-difluorophenyl)thiazole-4-carboxamide], 0.025 nM.
`Cn1ncc(NC(=O)c2nc(-c3ccccc3F)ccc2N)c1N1CC[C@H](N)CC(F)(F)C1` (stereo in doubt) [Example 249, 3-amino-N-(5-(5-amino-3,3-difluoroazepan-1-yl)-1-methyl-1H-pyrazol-4-yl)-6-(2-fluorophenyl)picolinamide] registered a Ki of 0.02 nM.
As for `Nc1sc(-c2c(F)cccc2F)nc1C(=O)Nc1cnn(CC(F)F)c1N1CCCC[C@@H](N)C1` [Example 104, (R)-5-amino-N-(5-(3-aminoazepan-1-yl)-1-(2,2-difluoroethyl)-1H-pyrazol-4-yl)-2-(2,6-difluorophenyl)thiazole-4-carboxamide], the figure is 0.091 nM; as for `Cc1ccc(F)c(-c2nc(C(=O)Nc3cnn(C)c3N3CCNCC(F)(F)C3)c(N)s2)c1` [Example 105, 5-Amino-N-(5-(6,6-difluoro-1,4-diazepan-1-yl)-1-methyl-1H-pyrazol-4-yl)-2-(2-fluoro-5-methylphenyl)thiazole-4-carboxamide], 0.019 nM; as for `Nc1sc(-c2c(F)cccc2F)nc1C(=O)Nc1cnn(CC(F)F)c1N1CCCC(O)CC1` (stereo not shown) [Example 110, 5-Amino-N-(1-(2,2-difluoroethyl)-5-(4-hydroxyazepan-1-yl)-1H-pyrazol-4-yl)-2-(2,6-difluorophenyl)thiazole-4-carboxamide], 0.166 nM.
With `Cc1ccc(F)c(-c2nc(C(=O)Nc3cnn(CC(F)F)c3N3CCCC(O)CC3)c(N)s2)c1` (stereo not shown) [Example 111, 5-Amino-N-(1-(2,2-difluoroethyl)-5-(4-hydroxyazepan-1-yl)-1H-pyrazol-4-yl)-2-(2-fluoro-5-methylphenyl)thiazole-4-carboxamide] the figure was 0.079 nM; with `Nc1sc(-c2cc(F)ccc2F)nc1C(=O)Nc1cnn(CC(F)F)c1N1CCCC(O)CC1` (stereo not shown) [Example 118, 5-Amino-N-(1-(2,2-difluoroethyl)-5-(4-hydroxyazepan-1-yl)-1H-pyrazol-4-yl)-2-(2,5-difluorophenyl)thiazole-4-carboxamide], 0.292 nM; with `Cn1ncc(NC(=O)c2nc(-c3ccccc3F)cnc2N)c1N1CC[C@H](N)CC(F)(F)C1` [Example 247, (S)-3-amino-N-(5-(5-amino-3,3-difluoroazepan-1-yl)-1-methyl-1H-pyrazol-4-yl)-6-(2-fluorophenyl)pyrazine-2-carboxamide], 0.01 nM.
The compound `Cn1ncc(NC(=O)c2nc(-c3ccccc3F)ccc2N)c1N1CC[C@@H](N)CC(F)(F)C1` [Example 250, (R)-3-amino-N-(5-(5-amino-3,3-difluoroazepan-1-yl)-1-methyl-1H-pyrazol-4-yl)-6-(2-fluorophenyl)picolinamide] had an inhibition constant (Ki) of 0.03 nM.
Take `Nc1sc(-c2c(F)cccc2F)nc1C(=O)Nc1cnn(CC2COC2)c1N1CCNCC1` [Example 251, 5-Amino-2-(2,6-difluoro-phenyl)-thiazole-4-carboxylic acid (1-oxetan-3-ylmethyl-5-piperazin-1-yl-1H-pyrazol-4-yl)-amide]: the Ki is above 667 nM.
